Experimental data reported in article PMC12392461, “Beyond Estrogenicity: A Comparative Assessment of Bisphenol A and Its Alternatives in In Vitro Assays Questions Safety of Replacements” (Environmental Science & Technology, 2025).
Like-named read-outs stand apart in the source and are kept apart here.

Experiments:
[1] = tested on: Antioxidant response element; assay: MitoOxTox: oxidative stress response in AREc32; conditions: for Specificity ratio (SRbaseline) SRARE: against baseline cytotoxicity; for Specificity ratio (SRcytotoxicity) SRARE: against experimental cytotoxicity; for ECIR1.5, ARE: effect; for ECIR1.5, ARE / ECIR1.5, ARE (M): induction ratio 1.5; for log(1/EC10) AREc32: input of the ToxPi score, values up to 1.00; for SR (ARE): specificity ratio; for EC10, linear / logEC10: Bioassay ARE, dosing range all; for EC10, linear: linear model fit; for logEC10: log-logistic model fit
Outline: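 ARE activity measured in MCF7-based AREc32 reporter cells, AhR in H4L7.5c2 CALUX cells, and neurotoxicity in SH-SY5Y cells differentiated with 10 µM retinoic acid. Viability was tracked by confluency imaging, or live–dead staining for SH-SY5Y. ARE benchmark was ECIR1.5; only concentrations below IC10 were used for EC10/ECIR1.5.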

[2] = tested on: HEK293H (PPARγ); conditions: for Toxic ratio (TR) TRPPARγ: against baseline cytotoxicity; for IC10, HEK293, PPARγ: cytotoxicity, HEK293 (PPARγ assay cells)
Outline: (§1)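 Cytotoxicity of BPA and its alternatives was measured as cell confluency on an IncuCyte S3 before and after 24 h exposure at 37 °C, 5% CO₂, normalized to cell-free control wells. Chemicals were dosed as 11-step serial dilutions in duplicate. Only concentrations below IC10 counted toward EC10 or ARE ECIR1.5.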

[3] = tested on: MCF7 (ARE/MMP); conditions: for Toxic ratio (TR) TRARE / Toxic ratio (TR) TRMMP: against baseline cytotoxicity; for Toxic ratio (TR) TRARE: ARE readout; for Toxic ratio (TR) TRMMP: MMP readout; for IC10, MCF7, ARE: MCF7, ARE readout; for IC10, MCF7, MMP: MCF7, MMP readout
Outline: as §1

[4] = tested on: HEK293T (ERα); conditions: for Toxic ratio (TR) TRERα: against baseline cytotoxicity; for IC10, HEK293, ERα: HEK293 (ERα assay cells)
Outline: as §1

[5] = tested on: H4IIe (AhR CALUX); conditions: for IC10, linear: linear model fit; for Toxic ratio (TR) TRAhR: against baseline cytotoxicity; for IC10, H4IIe, AhR: H4IIe (AhR assay cells)
Outline: as §1

[6] = Arec32, read-out: EC10, linear transformed
[7] = PPARγ bioassay cytotoxicity, dosing range all
[8] = PPARγ bioassay cytotoxicity, dosing range all, linear model
[9] = PPARγ bioassay cytotoxicity, dosing range all, log-logistic model
[10] = Bioassay ARE, cytotoxicity, dosing range all
[11] = Bioassay ARE, cytotoxicity, dosing range all, linear model fit
[12] = Bioassay ARE, cytotoxicity, dosing range all, log-logistic model fit
[13] = MMP bioassay cytotoxicity, dosing range all
[14] = MMP bioassay cytotoxicity, dosing range all, linear model
[15] = MMP bioassay cytotoxicity, dosing range all, log-logistic model
[16] = Bioassay ERα, cytotoxicity, dosing range all
[17] = Bioassay ERα, cytotoxicity, dosing range all, linear model fit
[18] = Bioassay ERα, cytotoxicity, dosing range all, log-logistic model fit
[19] = Bioassay AhR, cytotoxicity, dosing range all
[20] = Bioassay AhR, cytotoxicity, dosing range all, log-logistic model fit

Row | SMILES | IC10, linear transformed [2, 7] | IC10, linear [2, 8] | logIC10 [2, 9] | Toxic ratio (TR) TRPPARγ [2] | IC10, HEK293, PPARγ [2] | IC10, linear [3, 11] | logIC10 [3, 12] | IC10, linear transformed [3, 13] | IC10, linear [3, 14] | logIC10 [3, 15] | IC10, linear transformed [4, 16] | IC10, linear [4, 17] | logIC10 [4, 18] | Toxic ratio (TR) TRERα [4] | IC10, HEK293, ERα ([4]; cytotoxicity) | IC10, linear transformed [5, 19] | IC10, linear [5, 19] | logIC10 [5, 20] | EC10, linear [1] | logEC10 [1] | further results
1 | O=C(OCc1ccccc1)c1ccc(O)cc1 [BzPB, Benzyl 4-hydroxybenzoate] | 3.90E-06 | 3.41E-05 | -4.33 | 0.35 | 46.8 µM | 1.23E-04 | -4.05 | 2.97E-04 | 1.94E-04 | -3.53 | 1.15E-05 | 4.80E-05 | -4.38 | 0.39 | 42.1 µM | 2.87E-04 | 1.74E-04 | -3.54 | – | – | EC10 ([1]; Arec32, read-out: EC10, linear): 32.1 µM; EC10 [1, 6]: 16.7 µM; EC10 ([1]; Arec32, read-out: logEC10): 19.5 µM; Specificity ratio (SRbaseline) SRARE [1]: 1.73; Specificity ratio (SRcytotoxicity) SRARE [1]: 4.62; ECIR1.5, ARE [1]: 19.4 µM; ECIR1.5, ARE (M) [1]: 1.94 × 10^–5 M; log(1/EC10) AREc32 [1]: 1.00; SR (ARE) [1]: < 10; IC10, linear transformed [3, 10]: 8.95E-05; Toxic ratio (TR) TRARE [3]: 0.38; Toxic ratio (TR) TRMMP [3]: 0.11; IC10, MCF7, ARE ([3]; cytotoxicity): 89.5 µM; IC10, MCF7, MMP ([3]; cytotoxicity): 297 µM; Toxic ratio (TR) TRAhR [5]: 0.19; IC10, H4IIe, AhR ([5]; cytotoxicity): 174 µM
2 | CC(C)Oc1ccc(S(=O)(=O)c2ccc(O)cc2)cc1 [D8, 4-((4-Isopropoxyphenyl)sulfonyl)phenol] | – | – | – | 0.93 | – | – | – | – | – | – | – | – | – | 0.36 | – | – | – | – | – | – | EC10 ([1]; Arec32, read-out: EC10, linear): 1080 µM; EC10 [1, 6]: 932 µM; EC10 ([1]; Arec32, read-out: logEC10): 1230 µM; Specificity ratio (SRbaseline) SRARE [1]: 0.11; Specificity ratio (SRcytotoxicity) SRARE [1]: 1.77; ECIR1.5, ARE [1]: 1220 µM; ECIR1.5, ARE (M) [1]: 1.22 × 10^–3 M; log(1/EC10) AREc32 [1]: 0.62; SR (ARE) [1]: < 10; IC10, linear [2]: no cytotoxicity; logIC10 ([2]; human, 24 h): -4.15; Toxic ratio (TR) TRARE [3]: 0.06; Toxic ratio (TR) TRMMP [3]: 0.06; logIC10 ([3]; human, 24 h): -2.67; IC10, linear [4]: no cytotoxicity; logIC10 ([4]; human, 24 h): -3.73; Toxic ratio (TR) TRAhR [5]: 2.94; logIC10 ([5]; rat, 24 h): -4.56
3 | Cc1ccc(S(=O)(=O)NC(=O)Nc2cccc(OS(=O)(=O)c3ccc(C)cc3)c2)cc1 [Pergafast, N-(p-toluenesulfonyl)-N'-(3-(p-toluenesulfonyloxy)phenyl)urea] | 1.21E-06 | 2.22E-05 | -4.72 | 2.74 | 19.1 µM | 4.06E-05 | no cytotoxicity | – | no cytotoxicity | no cytotoxicity | 8.23E-06 | 1.21E-05 | -4.96 | 4.31 | 12.1 µM | – | no cytotoxicity | no cytotoxicity | no effect | no effect | –
4 | CC(C)(c1cc(Cl)c(O)c(Cl)c1)c1cc(Cl)c(O)c(Cl)c1 [TCBPA, 2,2',6,6'-Tetrachlorobisphenol A] | – | – | – | – | 18.4 µM | 8.16E-05 | -4.11 | 9.30E-05 | 7.25E-05 | -4.03 | 6.86E-06 | 1.51E-05 | -4.77 | – | 15.1 µM | 9.01E-05 | no cytotoxicity | -4.05 | no effect | no effect | IC10, linear transformed ([2]; PPARγ bioassay cytotoxicity, dosing range high): 5.23E-06; IC10, linear ([2]; PPARγ bioassay cytotoxicity, dosing range high, linear model): 1.84E-05; logIC10 ([2]; PPARγ bioassay cytotoxicity, dosing range high, log-logistic model): -4.74; IC10, linear transformed ([2]; PPARγ bioassay cytotoxicity, dosing range low): 7.55E-07; IC10, linear ([2]; PPARγ bioassay cytotoxicity, dosing range low, linear model): no cytotoxicity; logIC10 ([2]; PPARγ bioassay cytotoxicity, dosing range low, log-logistic model): no cytotoxicity; IC10, linear transformed [3, 10]: 7.84E-05; IC10, MCF7, ARE ([3]; cytotoxicity): 78.4 µM; IC10, MCF7, MMP ([3]; cytotoxicity): 93 µM; IC10, H4IIe, AhR ([5]; cytotoxicity): 90.1 µM
5 | Cc1cc(Cc2cc(C)c(O)c(C)c2)cc(C)c1O [TMBPF, Bis(3,5-dimethyl-4-hydroxyphenyl)methane] | 4.21E-07 | 3.65E-06 | -5.53 | 1.52 | 2.95 µM | no cytotoxicity | no cytotoxicity | 1.42E-05 | no cytotoxicity | -4.85 | 5.55E-06 | 6.58E-06 | -5.17 | 0.68 | 6.58 µM | 1.05E-04 | 1.11E-04 | -3.98 | no effect | no effect | Toxic ratio (TR) TRMMP [3]: 0.95; IC10, MCF7, MMP ([3]; cytotoxicity): 14.2 µM; Toxic ratio (TR) TRAhR [5]: 0.13; IC10, H4IIe, AhR ([5]; cytotoxicity): 105 µM
6 | CC1(C)[C@H](O)C(C)(C)[C@H]1O [Trans TMCD] | 1.52E-03 | no cytotoxicity | no cytotoxicity | – | – | no cytotoxicity | no cytotoxicity | – | no cytotoxicity | no cytotoxicity | – | – | – | – | – | 1.03E-02 | 8.94E-03 | -1.99 | no effect | no effect | IC10, linear transformed ([4]; ERα bioassay cytotoxicity, dosing range all): 5.38E-03; IC10, linear ([4]; ERα bioassay cytotoxicity, dosing range all, linear model): no cytotoxicity; logIC10 ([4]; ERα bioassay cytotoxicity, dosing range all, log-logistic model): no cytotoxicity
